Measurements published in patent US20240166703A1, “ANTI-INFLAMMATORY PEPTIDE AND METHOD OF USE THEREOF” (The Regents of the University of California, priority 2021, published 2024).

Columns and labels:
BMDM cells = experiment: Quantitation of cytokines in supernatant of cultured BMDM cells (toxicity); assay type: cell-based, C57BL/6J mice; details: 100 μM, 24 hours, without stimulating the cells
Experimental: With the approval of the UCSD and Veteran Affairs San Diego Institutional Animal Care and Use Committees (IACUC), bone marrow-derived macrophage (BMDM) cells were isolated from 6-8 weeks old C57BL/6J mice (Jackson Laboratory) followed by erythrocyte lysis with ammonium chloride, and then seeded in 12-well plates at a concentration of 1×10^6 cells/mL. Cultured cells were differentiated to macrophages with culture media containing monocyte-colony stimulating factor (M-CSF; 10 ng/mL). After 7 days of differentiation, BMDM cells were treated with TNF-α (10 ng/mL) or LPS ([…]) with or without TAT-NEMO^ActPep, TAT-NEMO^ActPep6G, or MLN120B.
BMDM cels were pre-incubated with or without 100 μM TAT-NEMO^ActPep or MLN120B for 24 hours. Negative control cells were treated with 1×PBS or DMSO at the same concentrations as those present in either TAT-NEMO^ActPep or MLN120B, respectively. IL-1β and TNF-α levels were measured from 20 μL supernatant of cultured BMDM cells using U-PLEX mouse cytokine assay kit (Meso Scale Diagnostics) following the manufacturer's protocol. […] Experiments were performed in triplicate.
Further, the potentially toxic effects of a high concentration (100 μM) dose of NEMO^ActPep were tested on IL-1β production in BMDMs without stimulating the cells. […]

[1] = test system: B- and T-cell proliferation; details: cited from earlier work
mice = details: mouse, in vivo; cited from earlier work

In the case of COc1c(Cl)cc2c([nH]c3cnccc32)c1NC(=O)c1cccnc1C [MLN120B], the “TNF-α expression / basal levels in BMDM supernatant” value (BMDM cells) is listed as “reduced basal levels of TNF-α”, the “production of IL-1β in BMDM supernatant” value (BMDM cells) is listed as “significantly induced production of mature IL-1β” and the “B- and T-cell proliferation” value [1] is listed as “block B- and T-cell proliferation”. For the same compound, the neutrophilia in mice (mice) was “promote neutrophilia” and the “septic shock in mice” value (mice) was “cause septic shock”.
